Measurements reported in ChEMBL document CHEMBL1697781, “Assessment of the health effects of chemicals in humans: II. Construction of an adverse effects database for QSAR modeling” (Curr Drug Discov Technol, 2004).

Key:
Conditions in all cases: human; call rule not given here
Hepatotoxicity [1] = test: FDA HLAED, alkaline phosphatase increase
Hepatotoxicity [2] = test: FDA HLAED, serum glutamic pyruvic transaminase (SGPT) increase
Hepatotoxicity [3] = test: FDA HLAED, serum glutamic oxaloacetic transaminase (SGOT) increase
Hepatotoxicity [4] = test: FDA HLAED, liver enzyme composite activity
Hepatotoxicity [5] = test: FDA HLAED, gamma-glutamyl transferase (GGT) increase
Wherever GGT Increase - Index Value is given: reference of the scale not given here.

SMILES | Alkaline Phosphatase Increase - Activity Score (Hepatotoxicity [1]) | Alkaline Phosphatase Increase - Index Value (Hepatotoxicity [1]) | Alkaline Phosphatase Increase - Number of Reports (Hepatotoxicity [1]) | SGPT Increase - Activity Score (Hepatotoxicity [2]) | SGPT Increase - Index Value (Hepatotoxicity [2]) | SGPT Increase - Number of Reports (Hepatotoxicity [2]) | SGOT Increase - Activity Score (Hepatotoxicity [3]) | SGOT Increase - Index Value (Hepatotoxicity [3]) | SGOT Increase - Number of Reports (Hepatotoxicity [3]) | Composite Activity - Active (Hepatotoxicity [4]) | Composite Activity - Marginal (Hepatotoxicity [4]) | Composite Activity - Score (Hepatotoxicity [4]) | GGT Increase - Activity Score (Hepatotoxicity [5]) | GGT Increase - Index Value (Hepatotoxicity [5]) | GGT Increase - Number of Reports (Hepatotoxicity [5]) | Composite Activity - Active (Hepatotoxicity [4]; Liver) | Composite Activity - Marginal (Hepatotoxicity [4]; Liver) | Composite Activity - Score (Hepatotoxicity [4]; Liver)
Oc1ncnc2[nH]ncc12 [ALLOPURINOL] | Active | 4.7 | >= 4 | Active | 9.4 | >= 4 | Active | 15 | >= 4 | 4 | 0 | Active | Active | 9.4 | >= 4 | – | – | –
NCC(CC(=O)O)c1ccc(Cl)cc1 (stereo not drawn) [BACLOFEN] | Active | 5.4 | >= 4 | – | – | – | Active | 5.4 | >= 4 | 2 | 0 | Active | – | – | – | – | – | –
NC(=O)N1c2ccccc2C=Cc2ccccc21 [CARBAMAZEPINE] | Marginally Active | 3.3 | >= 4 | – | – | – | – | – | – | 1 | 1 | – | Active | 4.4 | >= 4 | – | – | –
Clc1cccc(Cl)c1N=C1NCCN1 [CLONIDINE] | Active | 11.5 | >= 4 | Active | 7.6 | >= 4 | – | – | – | – | – | – | Active | 9.5 | >= 4 | 2 | 0 | Active
Nc1ccn([C@@H]2O[C@H](CO)[C@@H](O)[C@@H]2O)c(=O)n1 [CYTARABINE] | Active | 4.1 | >= 4 | Active | 4.1 | >= 4 | Active | 6.1 | >= 4 | – | – | – | – | – | – | 3 | 0 | Active
CN(C)CCC=C1c2ccccc2COc2ccccc21 [DOXEPIN] | Active | 434.8 | < 4 | – | – | – | – | – | – | 2 | 0 | Active | Active | 434.8 | < 4 | – | – | –
CCN(CC)CCOc1ccc(/C(=C(/Cl)c2ccccc2)c2ccccc2)cc1 [ENCLOMIPHENE] | – | – | – | Active | 25 | >= 4 | Active | 18.8 | >= 4 | 3 | 0 | Active | Active | 15.6 | >= 4 | – | – | –
CCCCCCCCCCCCCCCCCC(=O)O.CC[C@H]1OC(=O)[C@H](C)[C@@H](O[C@H]2C[C@@](C)(OC)[C@@H](O)[C@H](C)O2)[C@H](C)[C@@H](O[C@@H]2O[C@H](C)C[C@H](N(C)C)[C@H]2OC(C)=O)[C@](C)(O)C[C@@H](C)C(=O)[C@H](C)[C@@H](O)[C@]1(C)O [ERYTHROMYCIN ACISTRATE] | Active | 7.3 | >= 4 | Active | 8.5 | >= 4 | Active | 7.9 | >= 4 | 3 | 0 | Active | – | – | – | – | – | –
CCOC(=O)CCC(=O)O[C@H]1[C@H](O[C@@H]2[C@@H](C)[C@H](O[C@H]3C[C@@](C)(OC)[C@@H](O)[C@H](C)O3)[C@@H](C)C(=O)O[C@H](CC)[C@@](C)(O)[C@H](O)[C@@H](C)C(=O)[C@H](C)C[C@@]2(C)O)O[C@H](C)C[C@@H]1N(C)C [ERYTHROMYCIN ETHYLSUCCINATE] | Active | 7.3 | >= 4 | Active | 8.5 | >= 4 | Active | 7.9 | >= 4 | 3 | 0 | Active | – | – | – | – | – | –
CCC(=O)O[C@H]1[C@H](O[C@@H]2[C@@H](C)[C@H](O[C@H]3C[C@@](C)(OC)[C@@H](O)[C@H](C)O3)[C@@H](C)C(=O)O[C@H](CC)[C@@](C)(O)[C@H](O)[C@@H](C)C(=O)[C@H](C)C[C@@]2(C)O)O[C@H](C)C[C@@H]1N(C)C [ERYTHROMYCIN PROPIONATE] | Active | 7.3 | >= 4 | Active | 8.5 | >= 4 | Active | 7.9 | >= 4 | 3 | 0 | Active | – | – | – | – | – | –
CC[C@H]1OC(=O)[C@H](C)[C@@H](O[C@H]2C[C@@](C)(OC)[C@@H](O)[C@H](C)O2)[C@H](C)[C@@H](O[C@@H]2O[C@H](C)C[C@H](N(C)C)[C@H]2O)[C@](C)(O)C[C@@H](C)C(=O)[C@H](C)[C@@H](O)[C@]1(C)O [ERYTHROMYCIN] | Active | 7.3 | >= 4 | Active | 8.5 | >= 4 | Active | 7.9 | >= 4 | 3 | 0 | Active | – | – | – | – | – | –
CC(C)Cc1ccc(C(C)C(=O)O)cc1 (stereo not drawn) [IBUPROFEN] | Marginally Active | No Shipping Units | >= 4 | Marginally Active | No Shipping Units | >= 4 | Marginally Active | No Shipping Units | >= 4 | 0 | 3 | – | – | – | – | – | – | –
COc1ccc2c(c1)c(CC(=O)O)c(C)n2C(=O)c1ccc(Cl)cc1 [INDOMETHACIN] | Marginally Active | 3.1 | >= 4 | – | – | – | Marginally Active | 3.8 | >= 4 | 0 | 2 | – | – | – | – | – | – | –
Cc1cccc(Nc2ccccc2C(=O)O)c1C [MEFENAMIC ACID] | – | – | – | Active | 19.5 | < 4 | Active | 26 | >= 4 | – | – | – | – | – | – | 2 | 0 | Active
Sc1ncnc2nc[nH]c12 [MERCAPTOPURINE ANHYDROUS] | – | – | – | Active | 5.2 | >= 4 | Active | 4.4 | >= 4 | – | – | – | – | – | – | 2 | 0 | Active
CN(C)c1ccc(O)c2c1C[C@H]1C[C@H]3[C@H](N(C)C)C(O)=C(C(N)=O)C(=O)[C@@]3(O)C(O)=C1C2=O [MINOCYCLINE] | – | – | – | Marginally Active | No Shipping Units | >= 4 | Marginally Active | No Shipping Units | >= 4 | 0 | 2 | – | – | – | – | – | – | –
NNCCc1ccccc1 [PHENELZINE] | – | – | – | Active | 4.9 | >= 4 | Active | 4.9 | >= 4 | – | – | – | Active | 4.9 | >= 4 | 3 | 0 | Active
CC(=O)CC(c1ccccc1)c1c(O)c2ccccc2oc1=O (stereo not drawn) [WARFARIN] | Marginally Active | No Shipping Units | >= 4 | Marginally Active | No Shipping Units | >= 4 | Marginally Active | No Shipping Units | >= 4 | 0 | 3 | – | – | – | – | – | – | –
